Measured values published in BigSolDB 2.1.

OC[C@@H](O)[C@@H](O)[C@H](O)[C@@H](O)CO
solubility (mole fraction)
Settings | in THF | in acetone | in acetonitrile | in ethanol | in ethyl acetate | in methanol | in n-butanol | in n-propanol
278.15 K | 0.000363 | 0.000225 | 0.000109 | 0.000598 | 0.000239 | 0.00205 | 0.000449 | 0.000553
283.15 K | 0.000406 | 0.000255 | 0.000129 | 0.000753 | 0.000259 | 0.00275 | 0.000533 | 0.000677
288.15 K | 0.000446 | 0.000287 | 0.000153 | 0.000944 | 0.000289 | 0.00351 | 0.000627 | 0.000838
293.15 K | 0.000489 | 0.000328 | 0.000178 | 0.00117 | 0.000317 | 0.00461 | 0.000748 | 0.00102
298.15 K | 0.000544 | 0.000382 | 0.000208 | 0.00146 | 0.000354 | 0.00585 | 0.000895 | 0.00124
303.15 K | 0.000597 | 0.000436 | 0.000249 | 0.00181 | 0.000392 | 0.00739 | 0.00106 | 0.00152
